One series concerns the target IRAK1 (Homo sapiens, UniProt P51617). Description: SelectScreen kinase profiling, Adapta. It is filed as biochemical. Here is the method:
(§1) The kinase inhibitory potentials of compounds as described herein (e.g., SRI-42127 and SRI-41664) were evaluated by ThermoFisher Scientific's SelectScreen™ Kinase Profiling Service. The following kinase inhibitory assays were utilized: ZLYTE (Madison, WI) for NTRK1, PIM1, and cMET kinases; LanthaScreen Binding (Madison, WI) for AAK1 kinase; and Adapta (Madison, WI) for IRAK1 kinase.

The nature of another series: Log D at pH 7.4. It is filed as physicochemical.
In another series the target is PIM1 (Homo sapiens, UniProt P11309). Description: SelectScreen kinase profiling, ZLYTE. It is filed as biochemical. Here is the method:
as §1

Another series concerns the target cMET (Homo sapiens, UniProt P08581). As to the kind of experiment: SelectScreen kinase profiling, ZLYTE. It is filed as biochemical. On the procedure:
as §1

A further series concerns the target TRKA (NTRK1) (Homo sapiens, UniProt P04629). As to the kind of experiment: SelectScreen kinase profiling, ZLYTE. It is filed as biochemical. Here is the method: as §1
The nature of series [1]: Mouse liver microsomal stability in vitro. It is filed as in vitro ADME. The note with it: liver microsomes, read-out: MLM t1/2. A general note: Liver microsomes are a subcellular fraction often used to study metabolism.
Description: (§5) Selected compounds were assessed for their aqueous solubility, Log D and mouse and human liver microsomal stability.
A short description of a further series: in vitro. The settings on record: human, liver microsomes.
For the next series, the target named is AAK1 (Homo sapiens, UniProt Q2M2I8). Description: SelectScreen kinase profiling, LanthaScreen Binding. Here is the method: as §1
The nature of series [2]: aqueous solubility at pH 7.4. It is filed as physicochemical. The note with it: aqueous medium at pH 7.4, pH 7.4, aqueous buffer; read-out: Sol @ pH 7.4.
Description: as §5
The next series deals with T1, HuR (Homo sapiens, UniProt Q15717).
T1 construct: expressed in transfected cells; host or cells: U251 glioma cells, doxycycline-inducible constructs
As to the kind of experiment: cell-based split firefly luciferase-HuR dimerization assay. The note with it: for IC50: split luciferase HuR dimerization assay, compounds administered for 6 hours, read-out: HuR IC50. The method in brief:
(§2)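 U251 cells carrying HuR fused to N- or C-terminal split firefly luciferase halves (dimer reporter) or full-length Fluc (control); constructs induced with doxycycline 0.75 ug/ml for 48 h. Compounds at various concentrations vs vehicle for 6 h. Luciferin-driven luminescence read; mean+SD.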

Series [3] relates to PDGx XD456 glioma cell line. As to the kind of experiment: PrestoBlue cell viability assay. It is filed as cell-based. The note with it: Glioma cell; XD456, 48 hours of treatment. On the procedure: (§3) PrestoBlue cell viability reagent (ThermoFisher Scientific; Waltham, MA) was used for cell viability assays. The inhibitory dose-response data were normalized to the control (treatment with vehicle); the inhibitory dose-response curves, which were fitted by using Boltzmann equation, and the corresponding IC50s were generated by using OriginPro software (OriginLab Corporation, CA).
(§4) The glioma suppressive potentials of the new class of HuR multimerization inhibitors were evaluated by utilizing SRI-41664 and SRI-42127 compounds in several cell-based assays. First, it was confirmed that the SRI-41664 and SRI-42127 compounds are cytotoxic for established and PDGx cell lines. FIG. 5A illustrates the inhibitory dose responses of SRI-41664 and SRI-42127 compounds in the established U251, LN229, and the PDGx XD456 glioma cell lines. […] An HuR-overexpression approach was employed to confirm SRI-42127 inhibitory potency against HuR dimerization.

A further series relates to U251 glioma cell line. Description: PrestoBlue cell viability assay. It is filed as cell-based. The note with it: Homo sapiens, U-251, 48 h, U251, 48 hours of treatment; read-out: IC50 cell viability. Here is the method: as §3, §4
Another series deals with LN229 glioma cell line. As to the kind of experiment: PrestoBlue cell viability assay. The settings on record: Homo sapiens, LN-229; LN229, 48 hours of treatment. It is filed as cell-based. On the procedure: as §3, §4
For series [4], the system named is U251 cells expressing Fluc construct. As to the kind of experiment: control Fluc (full length luciferase) reporter assay in U251 cells. It is filed as cell-based. The settings on record: Homo sapiens, U-251, 6 h; Concn 50 uM; read-out: Fluc Imax % Inh. The gist of the method:
as §2
In general terms: A reporter such as luciferase makes a cellular process visible.

Series [5] deals with U251 and XD456 glioma cell lines. As to the kind of experiment: western blotting of glioma cell fractions (Bcl2, Mcl1, SOX2, cleaved PARP, cleaved caspase 3). It is filed as cell-based. The settings on record: U251 and XD456, 10 uM for 48 hours. Here is the method:
Western blotting was performed. Nuclear and cytoplasmic protein fractionations were performed using NE-PER Nuclear and Cytoplasmic extraction reagents (ThermoFisher Scientific). Anti-lamin A/C and anti-Tubulin alpha antibodies were utilized to verify nuclear and cytoplasmic fractions, respectively. Antibodies against lamin A/C, cleaved PARP, cleaved caspase 3, SOX2, and Mcl1 were purchased from Cell Signaling Technology (Danvers, MA). Anti-Tubulin alpha antibody was purchased from Sigma-Aldrich. Antibodies against HuR, actin, and Bcl2 were purchased from Santa Cruz Biotechnology (Santa Cruz, CA). Polyclonal anti-HuR antibody for HuR/mRNA co-immunoprecipitation was purchased from MBL International (Woburn, MA).
In FIG. 8B, representative western blots confirm reduction of Bcl2 and Mcl1 proteins in cytoplasmic fractions of U251 and XD456 cell lines following treatment with compounds as described herein, 10 uM for 48 hours. SOX2 reduction in nuclear fractions indicates decrease of tumorigenicity of cell lines after treatment with compounds as described herein. Actin and Lamin A/C were utilized for data normalization in cytoplasmic and nuclear fractions, respectively.
In FIG. 8C, representative western blots illustrate appearances of cleaved PARP and cleaved caspase 3 in glioma cell lines after treatment with compounds as described herein, 10 uM for 48 hours. […]
For orientation: In western blotting, separated proteins are transferred to a membrane and probed.

Values after ≈ are worked out from the molar mass of the structure shown.

cMET, sequence (P08581 25-1390): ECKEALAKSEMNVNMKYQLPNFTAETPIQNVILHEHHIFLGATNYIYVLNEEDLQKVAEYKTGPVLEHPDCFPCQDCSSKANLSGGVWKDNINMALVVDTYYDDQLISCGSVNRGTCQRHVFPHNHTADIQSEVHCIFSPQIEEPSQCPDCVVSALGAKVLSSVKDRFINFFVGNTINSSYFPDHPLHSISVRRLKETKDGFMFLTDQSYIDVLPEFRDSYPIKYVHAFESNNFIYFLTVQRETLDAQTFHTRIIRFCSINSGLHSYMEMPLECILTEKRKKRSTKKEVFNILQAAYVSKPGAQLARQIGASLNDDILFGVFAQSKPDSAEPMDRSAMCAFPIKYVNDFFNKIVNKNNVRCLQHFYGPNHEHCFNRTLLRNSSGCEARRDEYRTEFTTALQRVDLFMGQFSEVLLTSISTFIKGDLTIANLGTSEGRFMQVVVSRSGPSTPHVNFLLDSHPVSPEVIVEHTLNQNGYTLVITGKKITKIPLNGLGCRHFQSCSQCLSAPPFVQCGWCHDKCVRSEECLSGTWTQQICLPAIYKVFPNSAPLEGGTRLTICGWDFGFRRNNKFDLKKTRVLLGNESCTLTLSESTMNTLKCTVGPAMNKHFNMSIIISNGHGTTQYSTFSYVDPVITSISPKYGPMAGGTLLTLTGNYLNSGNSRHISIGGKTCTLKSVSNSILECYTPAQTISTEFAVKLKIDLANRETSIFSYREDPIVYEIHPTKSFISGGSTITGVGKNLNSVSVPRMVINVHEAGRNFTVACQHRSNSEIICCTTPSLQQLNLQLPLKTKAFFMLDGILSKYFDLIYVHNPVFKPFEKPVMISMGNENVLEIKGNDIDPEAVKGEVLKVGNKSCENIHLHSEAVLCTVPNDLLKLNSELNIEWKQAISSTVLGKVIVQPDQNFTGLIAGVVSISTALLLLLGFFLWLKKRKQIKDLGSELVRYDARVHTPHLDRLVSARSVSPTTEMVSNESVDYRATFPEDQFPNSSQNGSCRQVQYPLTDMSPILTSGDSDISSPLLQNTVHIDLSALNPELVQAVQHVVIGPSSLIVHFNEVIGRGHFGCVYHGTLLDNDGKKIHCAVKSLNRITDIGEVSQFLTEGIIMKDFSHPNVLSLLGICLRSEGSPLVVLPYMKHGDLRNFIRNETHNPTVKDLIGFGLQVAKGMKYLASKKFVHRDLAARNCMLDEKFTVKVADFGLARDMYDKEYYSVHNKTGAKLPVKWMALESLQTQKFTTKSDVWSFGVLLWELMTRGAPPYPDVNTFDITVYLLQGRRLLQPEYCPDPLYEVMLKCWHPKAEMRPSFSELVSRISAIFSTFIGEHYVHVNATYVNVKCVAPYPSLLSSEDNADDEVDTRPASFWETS
PIM1, sequence (P11309 whole entry): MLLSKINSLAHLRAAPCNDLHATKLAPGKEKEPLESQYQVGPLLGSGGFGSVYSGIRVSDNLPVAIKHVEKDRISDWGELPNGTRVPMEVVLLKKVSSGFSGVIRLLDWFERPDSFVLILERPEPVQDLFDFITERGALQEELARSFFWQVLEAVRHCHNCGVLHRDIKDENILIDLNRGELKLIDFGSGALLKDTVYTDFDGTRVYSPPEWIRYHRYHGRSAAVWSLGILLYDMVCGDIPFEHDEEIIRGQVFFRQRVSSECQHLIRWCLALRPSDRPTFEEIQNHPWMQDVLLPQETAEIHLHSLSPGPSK
T1 sequence (Q15717 whole entry): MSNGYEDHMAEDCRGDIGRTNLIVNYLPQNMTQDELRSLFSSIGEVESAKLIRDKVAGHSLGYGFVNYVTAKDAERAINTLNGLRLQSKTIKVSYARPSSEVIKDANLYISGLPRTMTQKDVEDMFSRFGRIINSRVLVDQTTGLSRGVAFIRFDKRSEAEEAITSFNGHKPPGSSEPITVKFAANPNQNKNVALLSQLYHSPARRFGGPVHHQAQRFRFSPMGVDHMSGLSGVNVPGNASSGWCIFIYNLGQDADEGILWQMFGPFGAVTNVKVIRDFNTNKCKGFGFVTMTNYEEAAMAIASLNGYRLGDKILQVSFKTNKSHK
TRKA (NTRK1), sequence (P04629 33-796): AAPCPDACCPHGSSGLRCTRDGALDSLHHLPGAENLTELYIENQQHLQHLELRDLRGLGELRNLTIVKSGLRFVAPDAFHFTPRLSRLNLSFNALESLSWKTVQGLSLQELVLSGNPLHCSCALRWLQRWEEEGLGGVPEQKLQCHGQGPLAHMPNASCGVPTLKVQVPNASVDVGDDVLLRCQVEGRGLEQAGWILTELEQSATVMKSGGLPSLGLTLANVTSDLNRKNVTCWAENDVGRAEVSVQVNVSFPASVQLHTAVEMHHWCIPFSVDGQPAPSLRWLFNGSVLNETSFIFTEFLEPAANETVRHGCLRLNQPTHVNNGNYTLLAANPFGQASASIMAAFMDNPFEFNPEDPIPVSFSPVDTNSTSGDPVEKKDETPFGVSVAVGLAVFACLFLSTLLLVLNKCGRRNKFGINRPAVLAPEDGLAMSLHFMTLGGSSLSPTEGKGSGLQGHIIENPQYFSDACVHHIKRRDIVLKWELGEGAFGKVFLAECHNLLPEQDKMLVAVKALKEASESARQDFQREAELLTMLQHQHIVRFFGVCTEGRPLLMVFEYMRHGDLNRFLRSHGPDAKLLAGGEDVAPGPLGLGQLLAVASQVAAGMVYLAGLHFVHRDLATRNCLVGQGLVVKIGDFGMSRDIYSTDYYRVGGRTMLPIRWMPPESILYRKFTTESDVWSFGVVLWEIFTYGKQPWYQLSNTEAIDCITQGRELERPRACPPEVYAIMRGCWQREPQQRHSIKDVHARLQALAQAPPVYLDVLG
AAK1, sequence (Q2M2I8 whole entry): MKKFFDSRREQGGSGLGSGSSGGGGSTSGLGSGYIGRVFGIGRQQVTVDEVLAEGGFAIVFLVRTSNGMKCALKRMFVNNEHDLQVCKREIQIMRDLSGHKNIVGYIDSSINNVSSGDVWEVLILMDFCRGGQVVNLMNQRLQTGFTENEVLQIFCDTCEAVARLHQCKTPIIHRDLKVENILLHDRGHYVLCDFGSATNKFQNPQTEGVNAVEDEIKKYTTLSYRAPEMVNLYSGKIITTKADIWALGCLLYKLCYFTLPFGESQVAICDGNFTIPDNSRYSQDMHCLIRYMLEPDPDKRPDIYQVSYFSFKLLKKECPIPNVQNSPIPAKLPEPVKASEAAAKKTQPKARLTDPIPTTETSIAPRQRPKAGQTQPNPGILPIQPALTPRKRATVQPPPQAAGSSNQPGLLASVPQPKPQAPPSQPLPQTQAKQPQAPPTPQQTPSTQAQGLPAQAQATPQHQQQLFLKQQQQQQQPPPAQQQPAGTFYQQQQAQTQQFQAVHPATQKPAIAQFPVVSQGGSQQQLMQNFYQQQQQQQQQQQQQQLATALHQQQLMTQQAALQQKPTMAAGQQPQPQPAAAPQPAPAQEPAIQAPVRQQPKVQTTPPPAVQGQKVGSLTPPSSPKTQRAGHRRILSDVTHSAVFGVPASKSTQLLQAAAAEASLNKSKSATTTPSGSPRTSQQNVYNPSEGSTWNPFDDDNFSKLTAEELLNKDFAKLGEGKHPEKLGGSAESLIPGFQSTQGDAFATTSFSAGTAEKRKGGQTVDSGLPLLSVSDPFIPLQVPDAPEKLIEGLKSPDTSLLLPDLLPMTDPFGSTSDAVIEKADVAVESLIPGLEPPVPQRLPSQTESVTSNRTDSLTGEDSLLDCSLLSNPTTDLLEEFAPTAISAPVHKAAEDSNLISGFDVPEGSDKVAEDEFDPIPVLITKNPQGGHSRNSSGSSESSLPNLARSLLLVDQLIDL
IRAK1, sequence (P51617 whole entry): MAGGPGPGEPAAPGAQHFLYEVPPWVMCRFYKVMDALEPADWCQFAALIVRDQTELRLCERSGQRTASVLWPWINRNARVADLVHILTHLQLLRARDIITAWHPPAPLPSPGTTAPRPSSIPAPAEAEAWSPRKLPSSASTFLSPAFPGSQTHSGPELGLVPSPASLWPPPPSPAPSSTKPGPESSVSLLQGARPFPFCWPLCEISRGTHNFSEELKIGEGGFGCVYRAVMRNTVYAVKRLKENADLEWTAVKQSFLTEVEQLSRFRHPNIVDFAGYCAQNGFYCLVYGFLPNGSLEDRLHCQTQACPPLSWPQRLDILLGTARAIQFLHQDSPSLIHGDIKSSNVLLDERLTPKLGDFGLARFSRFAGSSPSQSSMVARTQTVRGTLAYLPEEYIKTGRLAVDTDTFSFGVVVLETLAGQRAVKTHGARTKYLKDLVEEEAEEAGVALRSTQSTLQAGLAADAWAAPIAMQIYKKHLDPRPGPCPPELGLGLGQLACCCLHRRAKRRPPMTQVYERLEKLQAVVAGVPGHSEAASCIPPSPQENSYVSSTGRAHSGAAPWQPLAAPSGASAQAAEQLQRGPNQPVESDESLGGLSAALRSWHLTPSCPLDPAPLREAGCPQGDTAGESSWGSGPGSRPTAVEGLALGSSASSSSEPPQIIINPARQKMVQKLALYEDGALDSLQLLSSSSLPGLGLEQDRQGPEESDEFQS
Description for Log D at pH 7.4: as §5

Broadly, the IC50 is the concentration that inhibits the measured activity by half. For orientation: logD means lipophilicity at a set pH, counting ionised and neutral species. Low readings indicate a more hydrophilic compound, high ones a more lipophilic compound. With `CCCN(c1ccc2ncc(-c3ccc4cn[nH]c4c3)n2n1)C1CCOCC1` [Compound 27], the IC50 was more than 30 µM on IRAK1; more than 30 µM against PIM1; more than 30 µM against cMET; more than 30 µM against TRKA (NTRK1); 13 µM at AAK1; more than 50 µM on HuR. In the series “Log D at pH 7.4”, this compound returned a logD of 0.4. For the same compound, the half-life in series [1] is 9.8 min; in the series “in vitro”, more than 300 min. In addition, the solubility in series [2] was 65.3 µM (≈ 24.6 µg/mL). The “HuR inhibition activity (in words)” value on HuR was “inactive”.

For the compound `CCN(c1ccc2ncc(-c3ccc4cn[nH]c4c3)n2n1)C1CCOCC1` [Compound 26], the IC50 on IRAK1 was more than 30 µM; at PIM1 it was more than 30 µM; on cMET, more than 30 µM; on TRKA (NTRK1) it was more than 30 µM; on AAK1 it was 15.7 µM; at HuR, more than 50 µM. At HuR, the “HuR inhibition activity (in words)” value was “inactive”.

`c1cc2cn[nH]c2cc1-c1cnc2ccc(NC3CCOCC3)nn12` [Compound 5]: the IC50 at IRAK1 came to 0.3 µM; against PIM1, 0.829 µM; on cMET, 5.98 µM; at TRKA (NTRK1), 0.099 µM; on AAK1, 0.03 µM; in series [3], 4.8 ± 1.1 µM. Moreover, the IC50 worked out at 3.4 ± 0.5 µM with U251 glioma cell line and 3.8 ± 0.5 µM in the series with LN229 glioma cell line. For the same compound, in series [4], the inhibition at 50 µM came out at 38%. Besides, the “Bcl2 and Mcl1 protein levels in cytoplasmic fractions” value in series [5] is “dramatic reduction”. The “cleaved caspase 3 and cleaved PARP (apoptosis)” value in series [5] was “appearances of cleaved caspase 3 and cleaved PARP”.

The values above are taken from patent US12435091B2, “RNA-binding protein multimerization inhibitors and methods of use thereof” (THE UAB RESEARCH FOUNDATION, priority 2020, dated 2025).
